Series [1] concerns S. aureus (ATCC 29213). As to the kind of experiment: Antimicrobial activity, agar well zone of inhibition, S. aureus. It counts as cell-based, Staphylococcus aureus. The following applies: 10 μL of 10 mg/mL in 50% DMSO per well, overnight 37 °C, --- = no zone of inhibition; for zone of inhibition at 10000 µg/mL: Staphylococcus aureus, ATCC29213. The method, then:
(§1) The antimicrobial activity of the final compounds was performed by reported methods.The bacterial strains, E. coli (Gram negative), S. aureus (Gram positive), and fungi, Candida albicans, were used for the study. Luria broth Agar and Sabouraud Dextrose Agar were prepared into a petri dish using 25 mL of autoclaved media; 100 μL of diluted broth of freshly prepared E. coli, S. aureus, and C. albicans were spread on Luria Broth Agar and Sabouraud Agar plates, respectively. Then, 7 wells of 50 μL capacity were punched on each plate. Samples 5–18 (10 μL of 10 mg/mL standard prepared in 50% DMSO) were placed in each plate’s well in different plate sets. All the plates were incubated for overnight at 37 °C in an incubator shaker. The inhibition zone was calculated in triplicate.

Series [2] concerns C. albicans (ATCC 10231). As to the kind of experiment: Antifungal activity, agar well zone of inhibition, C. albicans. It counts as cell-based, Candida albicans. The conditions noted are these: 10 μL of 10 mg/mL in 50% DMSO per well, overnight 37 °C, --- = no zone of inhibition. The method, then: as §1
Series [3] concerns HCT-116. As to the kind of experiment: Antiproliferative activity, MTT assay, HCT-116. The following applies: Homo sapiens, HCT-116, read-out: Cytotoxicity IC50 HCT-116. The source says:
(§2) The compounds were screened on breast (MCF-7), liver (HepG2), and colorectal (HCT-116) cancer cells, obtained from American Type culture Collection (ATCC); 0.1% of DMSO was used as a vehicle control.

Series [4] deals with HepG2. As to the kind of experiment: Antiproliferative activity, MTT assay, HepG2. The following applies: for IC50: Homo sapiens, HepG2, read-out: Cytotoxicity IC50 HepG2.
Description: as §2
A general note: Formazan colour is commonly taken as a measure of viable cells.

Series [5] deals with MCF-7. As to the kind of experiment: Antiproliferative activity, MTT assay, MCF-7. The following applies: for IC50: Homo sapiens, MCF7, read-out: Cytotoxicity IC50 MCF-7.
Description: as §2

Series [6] has as its target Thymidylate synthase (TS) (Homo sapiens, UniProt P04818). As to the kind of experiment: Thymidylate synthase (TS) enzymatic assay.
The subject of series [7] is E. coli (ATCC 31218). As to the kind of experiment: Antimicrobial activity, agar well zone of inhibition, E. coli. Type of series: cell-based, Escherichia coli. The following applies: 10 μL of 10 mg/mL in 50% DMSO per well, overnight 37 °C, --- = no zone of inhibition; for zone of inhibition at 10000 µg/mL: Escherichia coli, ATCC31218. The method, then:
as §1

Thymidylate synthase (TS), sequence (P04818 whole entry): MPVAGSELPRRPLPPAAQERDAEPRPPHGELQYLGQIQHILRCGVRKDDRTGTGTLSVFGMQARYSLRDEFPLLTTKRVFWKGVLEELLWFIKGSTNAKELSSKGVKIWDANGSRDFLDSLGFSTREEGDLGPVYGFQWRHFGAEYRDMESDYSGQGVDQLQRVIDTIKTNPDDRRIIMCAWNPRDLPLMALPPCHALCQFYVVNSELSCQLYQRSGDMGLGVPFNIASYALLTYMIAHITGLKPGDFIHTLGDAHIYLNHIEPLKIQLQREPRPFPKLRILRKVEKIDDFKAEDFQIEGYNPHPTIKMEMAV

What is called zone of inhibition is the size of the clear area around the sample on an inoculated plate. Read a low zone of inhibition as a weaker effect on the plate. For orientation: melting point means the temperature, or range, at which the solid turns liquid. One may read the IC50 as the point on the concentration scale where inhibition reaches its midpoint. Consider `Cc1ccc(C(C)C)c(OCc2nnc(SCc3cn(-c4ccccc4O)nn3)o2)c1` [Compound 9, 2-(4-((5-((2-isopropyl-5-methylphenoxy)methyl)-1,3,4-oxadiazol-2-ylthio)methyl)-1H-1,2,3-triazol-1-yl)phenol], for which the melting point is 86 to 88 °C. Moreover, in series [1], the “zone of inhibition S. aureus” value is listed as 12 ± 0.34 mm and the zone of inhibition at 10000 µg/mL was determined as 12 mm. Besides, the “zone of inhibition C. albicans” value in series [2] was 10 ± 0.032 mm. Moreover, in series [2] (Candida albicans, ATCC10231), the zone of inhibition at 10000 µg/mL is 10 mm. Also, in series [3], the IC50 stood at 2600 nM. In series [4], the “fold active relative to 5-FU, HepG2” value was found to be 20 fold and the IC50 stood at 1400 nM. For the same compound, the “times active relative to 5-florouracil, MCF-7” value in series [5] ((IC50 18.74 μM)) was found to be 17 times. Besides, the IC50 in series [5] came out at 1100 nM. For the same compound, the IC50 in series [6] stood at 1950 ± 900 nM. Also, in series [7], the “zone of inhibition E. coli” value amounted to 12 ± 0.36 mm and the zone of inhibition at 10000 µg/mL turned out to be 12 mm.

Take `COc1ccccc1-n1cc(CSc2nnc(COc3cc(C)ccc3C(C)C)o2)nn1` [Compound 7, 4-((5-((2-isopropyl-5-methylphenoxy)methyl)-1,3,4-oxadiazol-2-ylthio)methyl)-1-(2-methoxyphenyl)-1H-1,2,3-triazole]: the melting point fell in the range of 81 to 83 °C. For the same compound, in series [1], the “zone of inhibition S. aureus” value was 12 ± 0.34 mm and the zone of inhibition at 10000 µg/mL came to 12 mm. The IC50 in series [3] came to 3100 nM. In addition, in series [4], the “fold active relative to 5-FU, HepG2” value came out at 16 fold and the IC50 is 1800 nM. The IC50 in series [5] turned out to be 2400 nM. In series [6], the half-inhibitory concentration (IC50) is 3520 ± 1200 nM. Moreover, in series [7], the “zone of inhibition E. coli” value is reported as 12 ± 0.34 mm and the zone of inhibition at 10000 µg/mL was found to be 12 mm.
